According to patent US20230143612A1 (Arbutus Biopharma Corporation, priority 2020, published 2023):

Target: PD-L1 His protein / PD-1 Fc protein (Homo sapiens, UniProt Q9NZQ7)
Assay: HTRF Assay (PD-1/PD-L1 interaction)
Format: binding
Settings: PD-L1 His 6 nM, PD-1 Fc 6 nM
Outline: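 HTRF: PD-L1 His (6 nM final), compound (3-fold dilutions, 20 μM to 0.001 μM final) and PD-1 Fc (6 nM final) preincubated 15 min at room temperature. Anti-human IgG-XL665 and anti-6HIS Tb cryptate (mixed at 6.7 nM and 0.35 nM) then added for 1 h at room temperature before reading.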

PD-L1 His protein / PD-1 Fc protein, sequence (Q9NZQ7 19-238 limits assumed): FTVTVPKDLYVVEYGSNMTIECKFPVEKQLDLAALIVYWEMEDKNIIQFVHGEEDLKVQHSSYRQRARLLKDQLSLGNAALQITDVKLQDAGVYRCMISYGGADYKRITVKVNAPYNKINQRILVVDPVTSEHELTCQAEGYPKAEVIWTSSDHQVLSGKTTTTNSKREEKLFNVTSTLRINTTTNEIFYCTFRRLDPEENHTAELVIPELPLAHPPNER

| SMILES | IC50 [nM] |
| --- | --- |
| O=C1CC[C@@H](CNCc2cnc3cc(-c4cccc(-c5cccc(-c6cnc7c(CNC[C@@H]8CCC(=O)N8)cnn7c6)c5Cl)c4Cl)ccn3c2=O)N1 [Example 381, 8-(2,2′-dichloro-3′-(3-(((((S)-5-oxopyrrolidin-2-yl)methyl)amino)methyl)pyrazolo[1,5-a]pyrimidin-6-yl)-[1,1′-biphenyl]-3-yl)-3-(((((S)-5-oxopyrrolidin-2-yl)methyl)amino)methyl)-4H-pyrido[1,2-a]pyrimidin-4-one] | 5.9 |
| COc1nc(-c2cccc(-c3cccc(-c4ccn5c(Cl)c(CNC[C@@H]6CCC(=O)N6)nc5c4)c3Cl)c2Cl)ccc1CNC[C@@H]1CCC(=O)N1 [Example 382, (5S)-5-[[[6-[2-chloro-3-[2-chloro-3-[3-chloro-2-[[[(2S)-5-oxopyrrolidin-2-yl]methylamino]methyl]imidazo[1,2-a]pyridin-7-yl]phenyl]phenyl]-2-methoxy-3-pyridyl]methylamino]methyl]pyrrolidin-2-one] | 110 |
| COc1nc(-c2cccc(-c3cccc(-c4ccn5c(Cl)c(CNCCO)nc5c4)c3Cl)c2Cl)ccc1CNCCO [Example 383, 2-[[6-[2-Chloro-3-[2-chloro-3-[3-chloro-2-[(2-hydroxyethylamino)methyl]imidazo[1,2-a]pyridin-7-yl]phenyl]phenyl]-2-methoxy-3-pyridyl]methylamino]etanol] | 40 |
| COC(=O)C(C)(C)CNCc1cnc2cc(-c3cccc(-c4cccc(-c5ccc(CNC[C@@H]6CCC(=O)N6)c(OC)n5)c4Cl)c3Cl)ccn2c1=O [Example 384, methyl (S)-3-(((8-(2,2′-dichloro-3′-(6-methoxy-5-((((5-oxopyrrolidin-2-yl)-methyl)-amino)-methyl)-pyridin-2-yl)-[1,1′-biphenyl]-3-yl)-4-oxo-4H-pyrido[1,2-a]pyrimidin-3-yl)-methyl)-amino)-2,2-dimethylpropanoate] | 2.7 |
| COc1nc(-c2cccc(-c3cccc(-c4ccc5[nH]c(CNC[C@@H]6CCC(=O)N6)c(Cl)c5n4)c3Cl)c2Cl)ccc1CNC[C@@H]1CCC(=O)N1 [Example 385, (S)-5-((((3-Chloro-5-(2,2′-dichloro-3′-(6-methoxy-5-(((((S)-5-oxopyrrolidin-2-yl)methyl)-amino)methyl)-pyridin-2-yl)-[1,1′-biphenyl]-3-yl)-1H-pyrrolo[3,2-b]-pyridin-2-yl)methyl)-amino)methyl)-pyrrolidin-2-one] | 13 |
| COc1nc(-c2cccc(-c3cccc(-c4ccc5c(Cl)c(CNC[C@@H]6CCC(=O)N6)[nH]c5n4)c3Cl)c2Cl)ccc1CNC[C@@H]1CCC(=O)N1 [Example 386, (S)-5-((((3-Chloro-6-(2,2′-dichloro-3′-(6-methoxy-5-(((((S)-5-oxopyrrolidin-2-yl)methyl)-amino)methyl)-pyridin-2-yl)-[1,1′-biphenyl]-3-yl)-1H-pyrrolo[2,3-b]-pyridin-2-yl)methyl)-amino)methyl)-pyrrolidin-2-one] | 28 |
| COc1nc(-c2cccc(-c3cccc(N4Cc5cc(CNC[C@@H]6CCC(=O)N6)ccc5C4=O)c3Cl)c2Cl)ccc1CNC[C@@H]1CCC(=O)N1 [Example 387, 2-(2,2′-Dichloro-3′-(6-methoxy-5-(((((S)-5-oxopyrrolidin-2-yl)methyl)amino)methyl)pyridin-2-yl)-[1,1′-biphenyl]-3-yl)-5-(((((S)-5-oxopyrrolidin-2-yl)methyl)amino)methyl)isoindolin-1-one] | 0.1 |
| COc1nc(-c2cccc(-c3cccc(-c4ccc5c(CNC[C@@H]6CCC(=O)N6)cn(C)c5n4)c3Cl)c2Cl)ccc1CNC[C@@H]1CCC(=O)N1 [Example 388, (5S)-5-[[[6-[2-Chloro-3-[2-chloro-3-[1-methyl-3-[[[(2S)-5-oxopyrrolidin-2-yl]methylamino]methyl]pyrrolo[2,3-b]pyridin-6-yl]phenyl]phenyl]-2-methoxy-3-pyridyl]methylamino]methyl]pyrrolidin-2-one] | 610 |
| COc1nc(-c2cccc(-c3cccc(-c4ccc5ncc(CNC[C@@H]6CCC(=O)N6)n5c4)c3Cl)c2Cl)ccc1CNC[C@@H]1CCC(=O)N1 [Example 389, (5S)-5-[[[6-[2-Chloro-3-[2-chloro-3-[3-[[[(2S)-5-oxopyrrolidin-2-yl]methylamino]methyl]imidazo[1,2-a]pyridin-6-yl]phenyl]phenyl]-2-methoxy-3-pyridyl]methylamino]methyl]pyrrolidin-2-one] | 40 |
| COc1nc(-c2cccc(-c3cccc(-c4ccc5nn(CCCN6C(=O)c7ccccc7C6=O)c(=O)n5c4)c3Cl)c2Cl)ccc1CNC[C@@H]1CCC(=O)N1 [Example 391, (S)-2-(3-(6-(2,2′-Dichloro-3′-(6-methoxy-5-((((5-oxopyrrolidin-2-yl)methyl)amino)methyl)pyridin-2-yl)-[1,1′-biphenyl]-3-yl)-3-oxo-[1,2,4]triazolo[4,3-a]pyridin-2(3H)-yl)propyl)isoindoline-1,3-dione] | 65 |
| COc1nc(-c2cccc(-c3cccc(-c4ccc5nn(CCCN(CC(C)C)CC(C)C)c(=O)n5c4)c3Cl)c2Cl)ccc1CNC[C@@H]1CCC(=O)N1 [Example 392, (S)-6-(2,2′-Dichloro-3′-(6-methoxy-5-((((5-oxopyrrolidin-2-yl)methyl)-amino)-methyl)pyridin-2-yl)-[1,1′-biphenyl]-3-yl)-2-(3-(diisobutylamino)propyl)-[1,2,4]triazolo[4,3-a]pyridin-3(2H)-one] | 6.7 |
| COc1nc(-c2cccc(-c3cccc(-c4ccn5c(=O)c(CN[C@H]6C[C@](C)(O)C6)cnc5c4)c3Cl)c2Cl)cc(Cl)c1CNC[C@@H]1CCC(=O)N1 [Example 393, 8-(2,2′-Dichloro-3′-(4-chloro-6-methoxy-5-(((((S)-5-oxopyrrolidin-2-yl)methyl)amino)methyl)pyridin-2-yl)-[1,1′-biphenyl]-3-yl)-3-((((1r,3r)-3-hydroxy-3-methylcyclobutyl)amino)methyl)-4H-pyrido[1,2-a]pyrimidin-4-one] | 62 |
| COc1cc(-c2cccc(-c3cccc(-c4cc5c(c(OC)c4)CN(C[C@@H]4CCC(=O)N4)CC5)c3Cl)c2Cl)cc2c1CN(C[C@@H]1CCC(=O)N1)CC2 [Example 394, (5S,5'S)-5,5′-((6,6′-(2,2′-Dichloro-[1,1′-biphenyl]-3,3′-diyl)bis(8-methoxy-3,4-dihydroisoquinoline-6,2(1H)-diyl))bis(methylene))bis(pyrrolidin-2-one)] | 71 |
| COc1nc(-c2cccc(-c3cccc(-c4cc5c(=O)n(C)c(CN(C)CCO)nn5c4)c3Cl)c2Cl)ccc1CNC[C@@H]1CCC(=O)N1 [Example 395, (S)-6-(2,2′-Dichloro-3′-(6-methoxy-5-((((5-oxopyrrolidin-2-yl)methyl)amino)methyl)pyridin-2-yl)-[1,1′-biphenyl]-3-yl)-2-(((2-hydroxyethyl)(methyl)amino)methyl)-3-methylpyrrolo[2,1-f][1,2,4]triazin-4(3H)-one] | 6.7 |
| COc1nc(-c2cccc(-c3cccc(-c4ccn5c(=O)c6c(nc5c4)OCCNC6)c3Cl)c2Cl)ccc1CNC[C@@H]1CCC(=O)N1 [Example 396, (S)-10-(2,2′-Dichloro-3′-(6-methoxy-5-((((5-oxopyrrolidin-2-yl)methyl)amino)methyl)pyridin-2-yl)-[1,1′-biphenyl]-3-yl)-4,5-dihydro-2H-pyrido[1′,2′:1,2]pyrimido[5,4-f][1,4]oxazepin-6(3H)-one] | 15 |
| COc1nc(-c2cccc(-c3cccc(-c4cc(OC)c5c(CNC[C@@H]6CCC(=O)N6)cnn5c4)c3Cl)c2Cl)ccc1CNC[C@@H]1CCC(=O)N1 [Example 397] | 290 |
| COc1nc(-c2cccc(-c3cccc(-c4ccc5c(OC)c(CNC[C@@H]6CCC(=O)N6)cc(Cl)c5n4)c3Cl)c2Cl)cc(F)c1CNC[C@@H]1CCC(=O)N1 [Example 398, (S)-5-((((8-Chloro-2-(2,2′-dichloro-3′-(4-fluoro-6-methoxy-5-(((((S)-5-oxopyrrolidin-2-yl)methyl)amino)methyl)pyridin-2-yl)-[1,1′-biphenyl]-3-yl)-5-methoxyquinolin-6-yl)methyl)amino)methyl)pyrrolidin-2-one] | 28 |
| CCc1nc2cc(-c3cccc(-c4cccc(-c5ccc(CNC[C@@H]6CCC(=O)N6)c(OC)n5)c4Cl)c3Cl)ccn2c(=O)c1CNC[C@@H]1CCC(=O)N1 [Example 399, 8-(2,2′-Dichloro-3′-(6-methoxy-5-(((((S)-5-oxopyrrolidin-2-yl)methyl)amino)methyl)pyridin-2-yl)-[1,1′-biphenyl]-3-yl)-2-ethyl-3-(((((S)-5-oxopyrrolidin-2-yl)methyl)amino)methyl)-4H-pyrido[1,2-a]pyrimidin-4-one] | 110 |
| COc1nc(-c2cccc(-c3cccc(-c4cc(F)c5c(c4)CCN(CCNC[C@@H]4CCC(=O)N4)C5=O)c3Cl)c2Cl)ccc1CNC[C@@H]1CCC(=O)N1 [Example 400, 6-(2,2′-Dichloro-3′-(6-methoxy-5-(((((S)-5-oxopyrrolidin-2-yl)methyl)amino)methyl)pyridin-2-yl)-[1,1′-biphenyl]-3-yl)-8-fluoro-2-(2-((((S)-5-oxopyrrolidin-2-yl)methyl)amino)ethyl)-3,4-dihydroisoquinolin-1(2H)-one] | 550 |
| COc1nc(-c2cccc(-c3cccc(-c4ncc5c(CNC[C@@H]6CCC(=O)N6)cn(C)c5n4)c3Cl)c2Cl)ccc1CNC[C@@H]1CCC(=O)N1 [Example 401, (S)-5-((((2-(2,2′-Dichloro-3′-(6-methoxy-5-(((((S)-5-oxopyrrolidin-2-yl)methyl)amino)methyl)pyridin-2-yl)-[1,1′-biphenyl]-3-yl)-7-methyl-7H-pyrrolo[2,3-d]pyrimidin-5-yl)methyl)amino)methyl)pyrrolidin-2-one] | 0.1 |
| COc1nc(-c2cccc(-c3cccc(-c4cc5c(cn4)c(CNC[C@@H]4CCC(=O)N4)cn5C)c3Cl)c2Cl)ccc1CNC[C@@H]1CCC(=O)N1 [Example 402, (S)-5-((((6-(2,2′-Dichloro-3′-(1-methyl-3-(((((S)-5-oxopyrrolidin-2-yl)methyl)amino)methyl)-1H-pyrrolo[3,2-c]pyridin-6-yl)-[1,1′-biphenyl]-3-yl)-2-methoxypyridin-3-yl)methyl)amino)methyl)pyrrolidin-2-one] | 50 |
